Experimental data taken from ChEMBL document CHEMBL1152303, “Synthesis and biological evaluation of a series of liver-selective phosphonic acid thyroid hormone receptor agonists and their prodrugs” (J Med Chem, 2008).

How the values were obtained:
[1] = system: Rattus norvegicus; assay: Tmax in Sprague-Dawley rat assessed as 3,5-Dimethyl-4-(4'-hydroxy-3'-isopropylbenzyl)phenoxy]methylphosphonic acid level at 3 mg/kg, po; assay type: ADME, organism-based; set-up: dose 3 mg/kg, route oral; conditions: in vivo
[2] = Oral bioavailability in Sprague-Dawley rat at 3 mg/kg; assay type: ADME, organism-based; conditions: in vivo
[3] = system: Rattus norvegicus; assay: Half life in Sprague-Dawley rat at 3 mg/kg, iv; assay type: ADME, organism-based; set-up: dose 3 mg/kg, route intravenous; conditions: in vivo
[4] = Mean residence time in Sprague-Dawley rat at 3 mg/kg, iv; assay type: ADME, organism-based; set-up: dose 3 mg/kg, route intravenous; conditions: in vivo
[5] = system: Rattus norvegicus; assay: Cmax in Sprague-Dawley rat assessed as 3,5-Dimethyl-4-(4'-hydroxy-3'-isopropylbenzyl)phenoxy]methylphosphonic acid level at 3 mg/kg, po; assay type: ADME, organism-based; set-up: dose 3 mg/kg, route oral; conditions: in vivo
[6] = system: Rattus norvegicus; assay: Mean residence time in Sprague-Dawley rat assessed as 3,5-Dimethyl-4-(4'-hydroxy-3'-isopropylbenzyl)phenoxy]methylphosphonic acid level at 3 mg/kg, po; assay type: ADME, organism-based; set-up: dose 3 mg/kg, route oral; conditions: in vivo
[7] = system: Rattus norvegicus; assay: Cmax in Sprague-Dawley rat at 3 mg/kg, iv; assay type: ADME, organism-based; set-up: dose 3 mg/kg, route intravenous; conditions: in vivo
[8] = system: Rattus norvegicus; assay: Cmax in Sprague-Dawley rat at 3 mg/kg, po; assay type: ADME, organism-based; set-up: dose 3 mg/kg, route oral; conditions: in vivo
[9] = system: Rattus norvegicus; assay: Reduction in total plasma cholesterol level in cholesterol-fed orally dosed Sprague-Dawley rat after 24 hrs relative to control; assay type: functional; set-up: scale not given: the % may be the effect or the level left
[10] = system: Rattus norvegicus; assay: Tmax in Sprague-Dawley rat at 3 mg/kg, po; assay type: ADME, organism-based; set-up: dose 3 mg/kg, route oral; conditions: in vivo
[11] = system: Rattus norvegicus; assay: AUClast in Sprague-Dawley rat assessed as 3,5-Dimethyl-4-(4'-hydroxy-3'-isopropylbenzyl)phenoxy]methylphosphonic acid level at 3 mg/kg, po; assay type: ADME, organism-based, Plasma; set-up: time 0 - last, dose 3 mg/kg, route oral; conditions: in vivo
[12] = system: Rattus norvegicus; assay: Cmax in Sprague-Dawley rat assessed as 3,5-Dimethyl-4-(4'-hydroxy-3'-isopropylbenzyl)phenoxy]methylphosphonic acid level at 3 mg/kg, iv; assay type: ADME, organism-based; set-up: dose 3 mg/kg, route intravenous; conditions: in vivo
[13] = system: Rattus norvegicus; assay: Mean absorption time in Sprague-Dawley rat assessed as 3,5-Dimethyl-4-(4'-hydroxy-3'-isopropylbenzyl)phenoxy]methylphosphonic acid level at 3 mg/kg, po; assay type: ADME, organism-based; set-up: dose 3 mg/kg, route oral; conditions: in vivo
[14] = system: Rattus norvegicus; assay: AUClast in Sprague-Dawley rat assessed as 3,5-Dimethyl-4-(4'-hydroxy-3'-isopropylbenzyl)phenoxy]methylphosphonic acid level at 3 mg/kg, iv; assay type: ADME, organism-based, Plasma; set-up: time 0 - last, dose 3 mg/kg, route intravenous; conditions: in vivo
[15] = Mean residence time in Sprague-Dawley rat at 3 mg/kg, po; assay type: ADME, organism-based; set-up: dose 3 mg/kg, route oral; conditions: in vivo
[16] = system: Rattus norvegicus; assay: Reduction in total plasma cholesterol level in cholesterol-fed orally dosed Sprague-Dawley rat after 24 hrs; assay type: functional; conditions: po
[17] = AUClast in Sprague-Dawley rat at 3 mg/kg, iv; assay type: ADME, organism-based; set-up: time 0 - last, dose 3 mg/kg, route intravenous; conditions: plasma
[18] = system: Rattus norvegicus; assay: Reduction in total plasma cholesterol level in cholesterol-fed Sprague-Dawley rat at 0.5 mg/kg, po after 24 hrs; assay type: functional; set-up: scale not given: the % may be the effect or the level left
[19] = system: Rattus norvegicus; assay: Half life in Sprague-Dawley rat assessed as 3,5-Dimethyl-4-(4'-hydroxy-3'-isopropylbenzyl)phenoxy]methylphosphonic acid level at 3 mg/kg, iv; assay type: ADME, organism-based; set-up: dose 3 mg/kg, route intravenous; conditions: in vivo
[20] = system: Rattus norvegicus; assay: Mean absorption time in Sprague-Dawley rat at 3 mg/kg, po; assay type: ADME, organism-based; set-up: dose 3 mg/kg, route oral; conditions: in vivo
[21] = system: Rattus norvegicus; assay: Mean residence time in Sprague-Dawley rat assessed as 3,5-Dimethyl-4-(4'-hydroxy-3'-isopropylbenzyl)phenoxy]methylphosphonic acid level at 3 mg/kg, iv; assay type: ADME, organism-based; set-up: dose 3 mg/kg, route intravenous; conditions: in vivo
[22] = system: Rattus norvegicus; assay: Oral bioavailability in Sprague-Dawley rat assessed as 3,5-Dimethyl-4-(4'-hydroxy-3'-isopropylbenzyl)phenoxy]methylphosphonic acid level at 3 mg/kg; assay type: ADME, organism-based; conditions: in vivo
[23] = system: Rattus norvegicus; assay: Half life in Sprague-Dawley rat assessed as 3,5-Dimethyl-4-(4'-hydroxy-3'-isopropylbenzyl)phenoxy]methylphosphonic acid level at 3 mg/kg, po; assay type: ADME, organism-based; set-up: dose 3 mg/kg, route oral; conditions: in vivo
[24] = Tmax in Sprague-Dawley rat at 3 mg/kg, iv; assay type: ADME, organism-based; set-up: dose 3 mg/kg, route intravenous; conditions: in vivo
[25] = system: Rattus norvegicus; assay: Tmax in Sprague-Dawley rat assessed as 3,5-Dimethyl-4-(4'-hydroxy-3'-isopropylbenzyl)phenoxy]methylphosphonic acid level at 3 mg/kg, iv; assay type: ADME, organism-based; set-up: dose 3 mg/kg, route intravenous; conditions: in vivo
[26] = AUClast in Sprague-Dawley rat at 3 mg/kg, po; assay type: ADME, organism-based; set-up: time 0 - last, dose 3 mg/kg, route oral; conditions: plasma
[27] = system: Rattus norvegicus; assay: Half life in Sprague-Dawley rat at 3 mg/kg, po; assay type: ADME, organism-based; set-up: dose 3 mg/kg, route oral; conditions: in vivo

In the case of `Cc1cc(OCP2(=O)OCC[C@@H](c3cccc(Cl)c3)O2)cc(C)c1Cc1ccc(O)c(C(C)C)c1` (some centres not stated) [MB07811], the Tmax [1] was 3.6 h, the bioavailability [2] was 9.9% and the t1/2 [3] was 1.23 h. For the same compound, the MRT [4] was 1.2 h, the Cmax [5] was 18 ng/mL and the MRT [6] was 7.91 h. It also gave a Cmax [7] of 600 ng/mL, a Cmax [8] of 12 ng/mL and an Activity [9] of 55%. It also gave a Tmax [10] of 2.1 h, an AUClast [11] of 135 ng·h/mL and a Cmax [12] of 92 ng/mL. It also gave an MAT [13] of 3.4 h, an AUClast [14] of 340 ng·h/mL and an MRT [15] of 2.49 h. The ED50 [16] was 0.48 mg/kg, the AUC(0-t) [17] was 260 ng·h/mL and the Activity [18] was 36%. It also gave a t1/2 [19] of 8.82 h, an MAT [20] of 1.29 h and an MRT [21] of 4.49 h. The F [22] was 39.2%, the t1/2 [23] was 9.25 h and the Tmax [24] was 0 h. For the same compound, the Tmax [25] was 0.6 h, the AUC(0-t) [26] was 26 ng·h/mL and the t1/2 [27] was 0.95 h.
